Assay results: ChEMBL document CHEMBL1201862, “PubChem BioAssay data set” (2004)
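These data come from cells grown in 96-well plates and exposed to compound for 48 hours at five concentrations. The concentration for 50% growth inhibition is given as GI50.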 Activity calls are given as the source filed them. Cut-off read from the data, not from the text of the source: active = GI50 up to about 1.1 µM and inactive = higher.

What was measured:
Assay in all cases: NCI tumour cell line growth inhibition, 48 h
[1] = tested on: A549
[2] = tested on: CCRF-CEM
[3] = tested on: EKVX
[4] = tested on: HCT-15
[5] = tested on: HOP-62
[6] = tested on: HT-29
[7] = tested on: MDA-MB-435
[8] = tested on: Malme-3M
[9] = tested on: NCI-H23
[10] = tested on: NCI-H522
[11] = tested on: OVCAR-3
[12] = tested on: RPMI-8226
[13] = tested on: SN12C
[14] = tested on: SNB-19
[15] = tested on: SNB-75
[16] = tested on: NCI-H460
[17] = tested on: SF-539
[18] = tested on: T47D
[19] = tested on: UACC-257
[20] = tested on: HCC 2998

SMILES | GI50 [1] | GI50 [2] | GI50 [3] | GI50 [4] | GI50 [5] | GI50 [6] | GI50 [7] | GI50 [8] | GI50 [9] | GI50 [10] | GI50 [11] | GI50 [12] | GI50 [13] | GI50 [14] | GI50 [15] | GI50 [16] | GI50 [17] | GI50 [18] | GI50 [19] | GI50 [20]
COI1NC(=O)c2ccccc21 | > 100 µM (inactive) | 60.4 µM (inactive) | > 100 µM (inactive) | > 100 µM | > 100 µM (inactive) | > 100 µM (inactive) | > 100 µM (inactive) | > 100 µM (inactive) | > 100 µM (inactive) | 74 µM (inactive) | > 100 µM (inactive) | > 100 µM (inactive) | > 100 µM (inactive) | > 100 µM (inactive) | > 100 µM (inactive) |  |  |  |  | 
N#CC(C#N)/N=N/c1ccc(-c2nc3ccccc3[nH]2)cc1 | > 100 µM (inactive) | 9.84 µM (inactive) | 50.7 µM (inactive) | 21.7 µM | > 100 µM (inactive) | 28.7 µM (inactive) | 18 µM (inactive) | 13.6 µM (inactive) | 20 µM (inactive) | 2.81 µM (inactive) | 13.8 µM (inactive) | 20.7 µM (inactive) | > 100 µM (inactive) | > 100 µM (inactive) | 42 µM (inactive) | 94.6 µM (inactive) | 15.9 µM (inactive) | 16.6 µM (inactive) | 14.9 µM (inactive) | 
CCN1C(Cl)=NS(=O)(=O)c2ccccc21 | > 100 µM (inactive) | 3.9 µM (inactive) | 23.8 µM (inactive) | 9.86 µM | 25.2 µM (inactive) | 18.8 µM (inactive) | 49.7 µM (inactive) |  | 23.6 µM (inactive) | 4.66 µM (inactive) | 19.3 µM (inactive) |  | 18.6 µM (inactive) | 35.5 µM (inactive) |  | 22.8 µM (inactive) | 15.9 µM (inactive) | 30 µM (inactive) | 28 µM (inactive) | 20.3 µM (inactive)
O=C(O)C(O)(c1ccc(-c2ccccc2)cc1)c1ccc(-c2ccccc2)cc1 | 40.4 µM (inactive) |  | 24.3 µM (inactive) | 19.2 µM | 20.1 µM (inactive) | 30.2 µM (inactive) | 19.5 µM (inactive) | 23.1 µM (inactive) | 18.9 µM (inactive) | 18.9 µM (inactive) | 15 µM (inactive) | 56.6 µM (inactive) | 22 µM (inactive) | 49.4 µM (inactive) | 17.1 µM (inactive) | 20.4 µM (inactive) |  | 41.6 µM (inactive) | 36.1 µM (inactive) | 
Cc1ccc(S(=O)(=O)N2CCNCCN(S(=O)(=O)c3ccc(C)cc3)CCNCC2)cc1 | 34.2 µM (inactive) |  | 24 µM (inactive) | 32.9 µM | 16.6 µM (inactive) | 14.1 µM (inactive) | 18.1 µM (inactive) | 17.5 µM (inactive) | 32.3 µM (inactive) | 16.6 µM (inactive) | 14.2 µM (inactive) |  | 29.6 µM (inactive) | 31 µM (inactive) | 20.2 µM (inactive) | 14.7 µM (inactive) | 19.1 µM (inactive) | 12.3 µM (inactive) | 16.4 µM (inactive) | 15.7 µM (inactive)
CO[P@]1(=O)O[C@@H](c2ccccc2)[C@H](O)[C@@]1(O)c1ccccc1 | > 100 µM (inactive) | > 100 µM (inactive) | > 100 µM (inactive) | > 100 µM |  | > 100 µM (inactive) | > 100 µM (inactive) | > 100 µM (inactive) | > 100 µM (inactive) | > 100 µM (inactive) | > 100 µM (inactive) |  | > 100 µM (inactive) | > 100 µM (inactive) | > 100 µM (inactive) | > 100 µM (inactive) | > 100 µM (inactive) | > 100 µM (inactive) | > 100 µM (inactive) | 
CCOC(=O)/C(C#N)=C/c1ccc(SCc2ccco2)c([N+](=O)[O-])c1 | > 100 µM (inactive) | > 100 µM (inactive) | > 100 µM (inactive) |  | > 100 µM (inactive) | > 100 µM (inactive) | > 100 µM (inactive) | > 100 µM (inactive) | > 100 µM (inactive) | > 100 µM (inactive) | > 100 µM (inactive) | > 100 µM (inactive) | > 100 µM (inactive) | > 100 µM (inactive) | > 100 µM (inactive) | > 100 µM (inactive) | 56.8 µM (inactive) |  | > 100 µM (inactive) | > 100 µM (inactive)
COc1ccc(-c2c(C(C)=O)c(-c3ccccc3)n(C3OC(CO)C(O)C(O)C3O)c(=S)c2C#N)cc1 (centres undefined) | > 100 µM (inactive) | > 100 µM (inactive) | > 100 µM (inactive) | > 100 µM | > 100 µM (inactive) | > 100 µM (inactive) | > 100 µM (inactive) | > 100 µM (inactive) | > 100 µM (inactive) | > 100 µM (inactive) | > 100 µM (inactive) |  | > 100 µM (inactive) | > 100 µM (inactive) |  | > 100 µM (inactive) | > 100 µM (inactive) | > 100 µM (inactive) | > 100 µM (inactive) | > 100 µM (inactive)
CC1=C[C@H](O)[C@@]2(C)[C@@H]([C@@H]1C)[C@H]1CC[C@@H]3[C@@]4(C)CC[C@H](O)C(C)(C)[C@@H]4CC[C@@]3(C)[C@]1(C)C[C@@H]2O | 12.8 µM (inactive) | 16.9 µM (inactive) | 12.4 µM (inactive) | 19 µM | 17.3 µM (inactive) | 13.8 µM (inactive) | 20.7 µM (inactive) | 20.6 µM (inactive) | 23.1 µM (inactive) | 17.9 µM (inactive) | 16.8 µM (inactive) |  | 15.2 µM (inactive) | 15.8 µM (inactive) |  | 18.9 µM (inactive) |  | 14.3 µM (inactive) | 20.1 µM (inactive) | 18.8 µM (inactive)
CCc1n[nH]c(=O)n1/N=C/c1ccc(/C=N/n2c(CC)n[nH]c2=O)cc1 | > 100 µM (inactive) | > 100 µM (inactive) | > 100 µM (inactive) | > 100 µM | > 100 µM (inactive) | > 100 µM (inactive) | > 100 µM (inactive) | > 100 µM (inactive) | > 100 µM (inactive) | > 100 µM (inactive) | > 100 µM (inactive) | > 100 µM (inactive) | > 100 µM (inactive) | > 100 µM (inactive) |  | > 100 µM (inactive) |  | > 100 µM (inactive) | > 100 µM (inactive) | 
CCc1ccc(NC(=O)NC(=O)c2ccccc2[N+](=O)[O-])cc1Oc1ncc(Cl)cn1 | 0.0213 µM (active) | 0.0213 µM (active) | 7.06 µM (inactive) | 0.0141 µM | < 0.0154 µM (active) | 0.0179 µM (active) | < 0.01 µM (active) | < 0.01 µM (active) | < 0.0174 µM (active) | 0.0135 µM (active) | 0.0147 µM (active) | < 0.0159 µM (active) | 0.0308 µM (active) | 0.0495 µM (active) | < 0.01 µM (active) | 0.0158 µM (active) | 0.0137 µM (active) |  | < 0.01 µM (active) | 0.027 µM (active)
CCOC(=O)C(/N=N\c1ccc(S(N)(=O)=O)cc1)C(C)=O (centres undefined) | > 100 µM (inactive) | > 100 µM (inactive) | > 100 µM (inactive) | > 100 µM | > 100 µM (inactive) | > 100 µM (inactive) |  | > 100 µM (inactive) | > 100 µM (inactive) | > 100 µM (inactive) | > 100 µM (inactive) | > 100 µM (inactive) | > 100 µM (inactive) | > 100 µM (inactive) | > 100 µM (inactive) | > 100 µM (inactive) | > 100 µM (inactive) |  | > 100 µM (inactive) | 99.5 µM (inactive)
CC1CC/C(=C\c2ccc(Cl)cc2)C2OC(N)=C(C#N)C(c3ccc(Cl)cc3)=C12 (centres undefined) |  | 5.06 µM (inactive) | 5.55 µM (inactive) | 11.1 µM | 2.18 µM (inactive) | 6.92 µM (inactive) | 18.4 µM (inactive) | 14.5 µM (inactive) | 13.6 µM (inactive) |  | 11.7 µM (inactive) | 7.6 µM (inactive) | 13.7 µM (inactive) | 20.4 µM (inactive) |  |  | 14.3 µM (inactive) | 0.442 µM (active) | 31.6 µM (inactive) | 
Nc1nc(SCCc2ccccc2)c2nc[nH]c2n1 | > 100 µM (inactive) | 31.2 µM (inactive) | 25.2 µM (inactive) | 37.2 µM | 50.5 µM (inactive) | 41.1 µM (inactive) | 81.7 µM (inactive) | 64.9 µM (inactive) | 69.5 µM (inactive) | 66.2 µM (inactive) | 45.1 µM (inactive) |  | 39.4 µM (inactive) | > 100 µM (inactive) | 33 µM (inactive) | 33.9 µM (inactive) |  | 40.9 µM (inactive) | 23.7 µM (inactive) | 25.9 µM (inactive)
NC1=C(NC(=O)Cc2ccccc2F)C(=O)c2ccccc2C1=O | 59.3 µM (inactive) | > 100 µM (inactive) | 59.3 µM (inactive) | 24.2 µM | 25.5 µM (inactive) | 46.7 µM (inactive) |  | 13.6 µM (inactive) | 40.6 µM (inactive) | 21.6 µM (inactive) | 8.26 µM (inactive) | > 100 µM (inactive) | 90.6 µM (inactive) | 35.8 µM (inactive) | 18.8 µM (inactive) | 47.2 µM (inactive) | 26.9 µM (inactive) |  | 29.6 µM (inactive) | > 100 µM (inactive)
COC(=O)C1=CC(=O)OC1(OO)c1ccc(Br)cc1 (centres undefined) | > 100 µM (inactive) | 27 µM (inactive) | > 100 µM (inactive) | 46.5 µM |  | 57.4 µM (inactive) | > 100 µM (inactive) | > 100 µM (inactive) | > 100 µM (inactive) | > 100 µM (inactive) | > 100 µM (inactive) |  | > 100 µM (inactive) | > 100 µM (inactive) | > 100 µM (inactive) | > 100 µM (inactive) | > 100 µM (inactive) | > 100 µM (inactive) | > 100 µM (inactive) | > 100 µM (inactive)
